Assay results reported in publication PMC4278210, “Sargassopenillines A–G, 6,6-Spiroketals from the Alga-Derived Fungi Penicillium thomii and Penicillium lividum” (Marine Drugs, 2014).

What was measured:
[1] = test system: CD-1 murine peritoneal macrophages; assay: Macrophage adhesion test; assay type: cell-based; details: Mus musculus, 10 µM (non-toxic concentration), 2 h incubation at 37 °C
Procedure: Mice were sacrificed by cervical dislocation. Peritoneal macrophages were isolated using standard procedures. For this purpose, 3 mL of PBS (pH 7.4) was immediately injected into the peritoneal cavity and the body intensively palpated for 1–2 min. Then, the peritoneal fluid was aspirated with a syringe and transferred to Petri dishes. Petri dishes with the fluid were incubated at 37 °C for 1–2 h to facilitate attachment of peritoneal macrophages to the dish. Then, a cell monolayer was triply flushed with PBS (pH 7.4) to delete attendant lymphocytes, fibroblasts and erythrocytes. Subsequently, macrophages were removed from the surface of the dishes with a scraper and flow of a saline solution, and then placed on an ice bath until use. The working concentration of cells was usually 1–2 × 10^6 cells/mL. The number of adhered cells was estimated according to standard method with some modifications.
Twenty […] of test compound solutions (at non-toxic concentration 10 μM) and […] of macrophage suspension were added to 96-well flat-bottom plates. After incubation for 2 h at 37 °C, cells were fixed with 70% ethanol solution ([…] per well) for 15 min at RT. […] Finally, the SDS/trypan blue solution absorbance was detected spectrophotometrically at 590 nm using a plate reader. The percentage of adhered cells compared to the control level of Trypan blue absorbance was calculated. […]

[2] = Radical scavenging activity against DPPH
Procedure: The experiments were performed as previously reported.

[3] = test system: oncogenic nuclear factor AP-1; assay: Basal AP-1-dependent transcriptional activity, luciferase reporter in JB6 Cl41 cells; assay type: cell-based; details: Mus musculus; JB6 Cl41 cells with AP-1 luciferase reporter; after 12 h of treatment; read-out: inhibition of transcriptional activity of AP-1, IC50
Procedure: The effect of compounds 1–3 and 7 on the basal AP-1-dependent transcriptional activity was also studied using JB6 Cl41 cells stably expressing a luciferase reporter gene controlled by an AP-1-DNA binding sequence.
The effects of the compounds on the basal transcriptional activities of AP-1 were evaluated using the JB6 Cl41 cell line stably expressing a luciferase reporter gene controlled by an AP-1-DNA binding sequence. The experiments were performed as previously reported with slight modifications.

[4] = Cytotoxicity towards CD-1 mouse splenocytes; assay type: cell-based; details: assayed up to 100 µM, read-out: cytotoxicity against splenocytes IC50
Procedure: The effect of the compounds on the cells viability was evaluated using the MTS test, which is based on the reduction of MTS into its formazan product by alive cells. Cytotoxicity towards CD-I mouse splenocytes was determined according to Freshney. Hemolytic activity towards CD-I mouse erythrocytes was determined as previously described.

IC50 [2] [µM]	SMILES	inhibition at 10 µM [1] [%]	other results
–	CC(=O)O[C@H]1CC[C@H](C)O[C@@]12OCC1=C(C[C@@H](O)[C@@](C)(O)C1=O)C2O (stereo partly shown) [compound 6, sargassopenilline F]	30 to 40	–
–	CC(=O)OC1C2=C(CO[C@@]13O[C@@H](C)CC[C@@H]3OC(C)=O)C(=O)C(C)=C(O)C2=O (stereo partly shown) [compound 4, sargassopenilline D]	30 to 40	–
21.3	O=C1O[C@H]([C@@H](O)CO)C(O)=C1O [Ascorbic acid, reference compound]	–	–
–	CC(=O)OC1C2=C(CO[C@@]13O[C@@H](C)C[C@H](O)[C@@H]3OC(C)=O)C(=O)C(C)(OC(C)=O)C(=O)C2 (stereo partly shown) [compound 3, sargassopenilline C]	–	IC50 [3]: 15 µM
100	Cc1c(O)cc2c(c1O)CO[C@@]1(O[C@@H](C)CC[C@@H]1O)[C@@H]2O [compound 1, sargassopenilline A]	–	–
50	C[C@H]1C[C@H](O)C[C@@]2(CC3=C(CO2)C(=O)[C@](C)(O)[C@H](O)C3)O1 [compound 5, sargassopenilline E]	–	IC50 [4]: 38 µM
